Where “and” joins values, the source holds several entries; their conditions need not be identical. Identical values can stand only once. Inconclusive results and toxic doses are left out. Rule as the data show it: active = T/C of 150% or more; inactive = T/C below 125%.
System: L1210 leukemia ip in BDF1 mice, survival T/C
Assay: NCI In Vivo Anticancer Drug Screen. Data for tumor model L1210 Leukemia (intraperitoneal) in B6D2F1 (BDF1) mice
Conditions: endpoint: mean survival time, higher = longer survival
Method in brief: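 Survival endpoint. Drug-treated group vs vehicle group, expressed as T divided by C. Tumor passaged by transplantation.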

[1] = dose: 200.0 mg/kg/injection, schedule: Q01DX001 (ip), vehicle: carboxymethylcellulose (CMC)
[2] = dose: 100.0 mg/kg/injection, schedule: Q01DX001 (ip), vehicle: Klucel (hydroxypropylcellulose) (HPC)
[3] = dose: 200.0 mg/kg/injection, schedule: Q01DX001 (ip), vehicle: Klucel (hydroxypropylcellulose) (HPC)
[4] = dose: 400.0 mg/kg/injection, schedule: Q01DX001 (ip), vehicle: Klucel (hydroxypropylcellulose) (HPC)
[5] = dose: 100.0 mg/kg/injection, schedule: Q01DX009 (ip), vehicle: saline with Tween-80
[6] = dose: 100.0 mg/kg/injection, schedule: Q04DX003 (ip), vehicle: saline with Tween-80
[7] = dose: 200.0 mg/kg/injection, schedule: Q01DX009 (ip), vehicle: saline with Tween-80
[8] = dose: 200.0 mg/kg/injection, schedule: Q04DX003 (ip), vehicle: saline with Tween-80
[9] = dose: 400.0 mg/kg/injection, schedule: Q01DX009 (ip), vehicle: saline with Tween-80
[10] = dose: 400.0 mg/kg/injection, schedule: Q04DX003 (ip), vehicle: saline with Tween-80

Measured: T/C

C/C=C\c1ccc(OC(=O)NC)c(OC)c1
inactive: dose: 100.0 mg/kg/injection, schedule: Q01DX001 (ip), vehicle: carboxymethylcellulose (CMC) 99 % of control | dose: 100.0 mg/kg/injection, schedule: Q01DX009 (ip), vehicle: carboxymethylcellulose (CMC) 97 % of control and 104 % of control | dose: 100.0 mg/kg/injection, schedule: Q04DX002 (ip), vehicle: Klucel (hydroxypropylcellulose) (HPC) 100 % of control | dose: 100.0 mg/kg/injection, schedule: Q04DX002 (ip), vehicle: carboxymethylcellulose (CMC) 98 % of control and 104 % of control | dose: 100.0 mg/kg/injection, schedule: Q04DX003 (ip), vehicle: carboxymethylcellulose (CMC) 96 % of control | [1] 100 % of control | dose: 200.0 mg/kg/injection, schedule: Q01DX009 (ip), vehicle: carboxymethylcellulose (CMC) 103 % of control and 104 % of control | dose: 200.0 mg/kg/injection, schedule: Q04DX002 (ip), vehicle: Klucel (hydroxypropylcellulose) (HPC) 103 % of control | dose: 200.0 mg/kg/injection, schedule: Q04DX002 (ip), vehicle: carboxymethylcellulose (CMC) 98 % of control and 108 % of control | dose: 200.0 mg/kg/injection, schedule: Q04DX003 (ip), vehicle: carboxymethylcellulose (CMC) 93 % of control | dose: 400.0 mg/kg/injection, schedule: Q01DX001 (ip), vehicle: carboxymethylcellulose (CMC) 99 % of control | dose: 400.0 mg/kg/injection, schedule: Q01DX009 (ip), vehicle: carboxymethylcellulose (CMC) 100 % of control and 101 % of control | dose: 400.0 mg/kg/injection, schedule: Q04DX002 (ip), vehicle: Klucel (hydroxypropylcellulose) (HPC) 103 % of control | dose: 400.0 mg/kg/injection, schedule: Q04DX002 (ip), vehicle: carboxymethylcellulose (CMC) 93 % of control and 98 % of control | dose: 400.0 mg/kg/injection, schedule: Q04DX003 (ip), vehicle: carboxymethylcellulose (CMC) 93 % of control

N#CC(C#N)=C1CCC(=C(C#N)C#N)CC1
inactive: dose: 50.0 mg/kg/injection, schedule: Q04DX003 (ip), vehicle: Klucel (hydroxypropylcellulose) (HPC) 104 % of control | [2] 105 % of control | dose: 100.0 mg/kg/injection, schedule: Q04DX003 (ip), vehicle: Klucel (hydroxypropylcellulose) (HPC) 121 % of control | [3] 118 % of control | dose: 200.0 mg/kg/injection, schedule: Q04DX003 (ip), vehicle: Klucel (hydroxypropylcellulose) (HPC) 96 % of control | [4] 105 % of control

CC12CCC=CC1=CC(=O)CC2 (centres undefined)
inactive: dose: 75.0 mg/kg/injection, schedule: Q01DX001 (ip), vehicle: other 98 % of control | dose: 150.0 mg/kg/injection, schedule: Q01DX001 (ip), vehicle: other 106 % of control | dose: 300.0 mg/kg/injection, schedule: Q01DX001 (ip), vehicle: other 103 % of control

CC1(C)C2CCC1(C)C(NC(=O)N(CCCl)N=O)C2 (centres undefined)
inactive: dose: 4.0 mg/kg/injection, schedule: Q01DX001 (ip), vehicle: carboxymethylcellulose (CMC) 98 % of control | dose: 9.0 mg/kg/injection, schedule: Q01DX001 (ip), vehicle: carboxymethylcellulose (CMC) 96 % of control | dose: 18.0 mg/kg/injection, schedule: Q01DX001 (ip), vehicle: carboxymethylcellulose (CMC) 102 % of control | dose: 37.0 mg/kg/injection, schedule: Q01DX001 (ip), vehicle: carboxymethylcellulose (CMC) 112 % of control | dose: 75.0 mg/kg/injection, schedule: Q01DX001 (ip), vehicle: carboxymethylcellulose (CMC) 104 % of control | dose: 150.0 mg/kg/injection, schedule: Q01DX001 (ip), vehicle: carboxymethylcellulose (CMC) 106 % of control | [1] 115 % of control | dose: 500.0 mg/kg/injection, schedule: Q01DX001 (ip), vehicle: carboxymethylcellulose (CMC) 115 % of control | dose: 1000.0 mg/kg/injection, schedule: Q01DX001 (ip), vehicle: carboxymethylcellulose (CMC) 121 % of control

COC(OC)c1nc(NC(C)=O)[nH]c(=O)c1Cc1ccc(N)cc1
inactive: [5] 96 % of control | [6] 94 % of control | [7] 89 % of control | [8] 96 % of control | [9] 97 % of control | [10] 110 % of control

Cc1ccc2c(c1)P(O)(=S)c1cc(Cl)ccc1O2 (centres undefined)
inactive: dose: 25.0 mg/kg/injection, schedule: Q01DX009 (ip), vehicle: saline 102 % of control | dose: 50.0 mg/kg/injection, schedule: Q01DX009 (ip), vehicle: saline 108 % of control | dose: 100.0 mg/kg/injection, schedule: Q01DX009 (ip), vehicle: saline 108 % of control | dose: 200.0 mg/kg/injection, schedule: Q01DX009 (ip), vehicle: saline 108 % of control

CC(=O)OC1([N+](=O)[O-])c2ccccc2C2CC1c1ccccc12 (centres undefined)
inactive: dose: 75.0 mg/kg/injection, schedule: Q04DX003 (ip), vehicle: Klucel (hydroxypropylcellulose) (HPC) 112 % of control | [2] 91 % of control | dose: 150.0 mg/kg/injection, schedule: Q04DX003 (ip), vehicle: Klucel (hydroxypropylcellulose) (HPC) 107 % of control | [3] 99 % of control | dose: 300.0 mg/kg/injection, schedule: Q04DX003 (ip), vehicle: Klucel (hydroxypropylcellulose) (HPC) 97 % of control | [4] 100 % of control

Cc1ccc(Cl)cc1NC(=O)Oc1ccccc1C(=O)OCc1ccccc1
inactive: [5] 97 % of control | [7] 100 % of control | [9] 94 % of control

CCN(C(=O)Nc1cccc(Cl)c1)c1ccccc1
inactive: [5] 90 % of control | [6] 96 % of control | [7] 90 % of control | [8] 97 % of control | [9] 86 % of control | [10] 97 % of control

COC(=O)CC(=O)OCC1C=CCC=C1
inactive: [6] 106 % of control | [8] 95 % of control | [10] 92 % of control

Oc1ccc2nocc2c1N=Nc1ccccc1
inactive: dose: 50.0 mg/kg/injection, schedule: Q01DX009 (ip), vehicle: saline with Tween-80 98 % of control | [5] 98 % of control | [7] 95 % of control
